Measurements as given in patent US11485657B2, “Biological remediation of groundwater using an algal photobioreactor system” (priority 2019, dated 2022).

Test system: C. subellipsoidea
Test: Paraoxon hydrolysis in C. subellipsoidea cultures assayed by p-nitrophenol production (absorbance 408 nm)
Format: cell-based, Coccomyxa subellipsoidea
Conditions: for hydrolysis of paraoxon into p-nitrophenol with oligomycin and rotenone in the dark: oligomycin 20 μg/mL and rotenone 20 μg/mL together, samples at 12 h, 24 h, 48 h

| Structure (SMILES) | hydrolysis of paraoxon into p-nitrophenol with oligomycin and rotenone in the dark (paraoxon 0.25 mg/mL) | effect on paraoxon hydrolysis, DCMU and paraoxon in the light (actively growing cultures, light) | production of p-nitrophenol from paraoxon in the presence of DCMU (paraoxon 0.25 mg/mL, 12 h, light, versus absence of DCMU) |
| --- | --- | --- | --- |
| CC[C@H]1/C=C/C=C/C[C@@H](C)[C@H](O)[C@@](C)(O)C(=O)[C@@H](C)[C@H](O)[C@@H](C)C(=O)[C@@H](C)[C@H](O)[C@@H](C)/C=C/C(=O)O[C@@H]2[C@H](C)[C@H](CC1)O[C@]1(CC[C@H](C)[C@H](C[C@@H](C)O)O1)[C@H]2C [oligomycin] | not hydrolyzed | – | – |
| C=C(C)[C@H]1Cc2c(ccc3c2O[C@@H]2COc4cc(OC)c(OC)cc4[C@@H]2C3=O)O1 [rotenone] | not hydrolyzed | – | – |
| CN(C)C(=O)Nc1ccc(Cl)c(Cl)c1 [DCMU, 3-(3,4-dichlorophenyl)-1,1-dimethylurea] | – | blocked hydrolysis | decreased nearly two-fold |
